Five molecules from US8343993B2, “Hydroxyalkyl substituted imidazonaphthyridines” (3M Innovative Properties Company, priority 2005, dated 2013) can be followed below.

Where two headings read alike, the source gives them in different places.

One data set concerns IFN-α. Put plainly: Cytokine induction in human cells (PBMC): IFN-α secreted into culture media, ELISA. It is filed as cell-based. Conditions: 30-0.014 μM, lowest concentration inducing over 20 pg/mL, median where several experiments, read-out: Minimum Effective Concentration IFN. From the text:
(§1) An in vitro human blood cell system is used to assess cytokine induction. Activity is based on the measurement of interferon (α) and tumor necrosis factor (α) (IFN-α, and TNF-α, respectively) secreted into culture media as described by Testerman et. al. in “Cytokine Induction by the Immunomodulators Imiquimod and S-27609”, Journal of Leukocyte Biology, 58, 365-372 (September, 1995).
(§2) Whole blood from healthy human donors is collected by venipuncture into vacutainer tubes or syringes containing EDTA. Peripheral blood mononuclear cells (PBMC) are separated from whole blood by density gradient centrifugation using HISTOPAQUE-1077 (Sigma, St. Louis, Mo.) or Ficoll-Paque Plus (Amersham Biosciences Piscataway, N.J.). Blood is diluted 1:1 with Dulbecco's Phosphate Buffered Saline (DPBS) or Hank's Balanced Salts Solution (HBSS). Alternately, whole blood is placed in Accuspin (Sigma) or LeucoSep (Greiner Bio-One, Inc., Longwood Fla.) centrifuge frit tubes containing density gradient medium. The PBMC layer is collected and washed twice with DPBS or HBSS and re-suspended at 4×10^6 cells/mL in RPMI complete. The PBMC suspension is added to 96 well flat bottom sterile tissue culture plates containing an equal volume of RPMI complete media containing test compound.
(§3) The compounds are solubilized in dimethyl sulfoxide (DMSO). The DMSO concentration should not exceed a final concentration of 1% for addition to the culture wells. The compounds are generally tested at concentrations ranging from 30-0.014 μM. Controls include cell samples with media only, cell samples with DMSO only (no compound), and cell samples with reference compound.
(§4) The solution of test compound is added at 60 μM to the first well containing RPMI complete and serial 3 fold dilutions are made in the wells. The PBMC suspension is then added to the wells in an equal volume, bringing the test compound concentrations to the desired range (usually 30-0.014 μM). The final concentration of PBMC suspension is 2×10^6 cells/mL. The plates are covered with sterile plastic lids, mixed gently and then incubated for 18 to 24 hours at 37° C. in a 5% carbon dioxide atmosphere.
(§5) Following incubation the plates are centrifuged for 10 minutes at 1000 rpm (approximately 200×g) at 4° C. The cell-free culture supernatant is removed and transferred to sterile polypropylene tubes. Samples are maintained at −30 to −70° C. until analysis. The samples are analyzed for IFN-α by ELISA and for TNF-α by IGEN/BioVeris Assay.
IFN-α concentration is determined with a human multi-subtype colorimetric sandwich ELISA (Catalog Number 41105) from PBL Biomedical Laboratories, Piscataway, N.J. Results are expressed in pg/mL.
Analysis of the data has two steps. First, the greater of the mean DMSO (DMSO control wells) or the experimental background (usually 20 pg/mL for IFN-α and 40 pg/mL for TNF-α) is subtracted from each reading. If any negative values result from background subtraction, the reading is reported as “*” and is noted as not reliably detectable. In subsequent calculations and statistics, “*” is treated as a zero. Second, all, background subtracted values are multiplied by a single adjustment ratio to decrease experiment to experiment variability. The adjustment ratio is the area of the reference compound in the new experiment divided by the expected area of the reference compound based on the past 61 experiments (unadjusted readings). […] The reference compound used is 2-[4-amino-2-ethoxymethyl-6,7,8,9-tetrahydro-α,α-dimethyl-1H-imidazo[4,5-c]quinolin-1-yl]ethanol hydrate (U.S. Pat. No. 5,352,784; Example 91) and the expected area is the sum of the median dose values from the past 61 experiments.
The minimum effective concentration is calculated based on the background-subtracted, reference-adjusted results for a given experiment and compound. […]

Another data set concerns TNF-α. Put plainly: Cytokine induction in human cells (PBMC): TNF-α secreted into culture media, ORIGEN M-Series immunoassay. It is filed as cell-based. As to conditions: 30-0.014 μM, lowest concentration inducing over 40 pg/mL, median where several experiments, read-out: Minimum Effective Concentration TNF.
Text: as §1, §2, §3, §4, §5
The TNF-α concentration is determined by ORIGEN M-Series Immunoassay and read on an IGEN M-8 analyzer from BioVeris Corporation, formerly known as IGEN International, Gaithersburg, Md. The immunoassay uses a human TNF-α capture and detection antibody pair (Catalog Numbers AHC3419 and AHC3712) from Biosource International, Camarillo, Calif. Results are expressed in pg/mL.
Analysis of the data has two steps. First, the greater of the mean DMSO (DMSO control wells) or the experimental background (usually 20 pg/mL for IFN-α and 40 pg/mL for TNF-α) is subtracted from each reading. If any negative values result from background subtraction, the reading is reported as “*” and is noted as not reliably detectable. In subsequent calculations and statistics, “*” is treated as a zero. Second, all, background subtracted values are multiplied by a single adjustment ratio to decrease experiment to experiment variability. The adjustment ratio is the area of the reference compound in the new experiment divided by the expected area of the reference compound based on the past 61 experiments (unadjusted readings). […] The reference compound used is 2-[4-amino-2-ethoxymethyl-6,7,8,9-tetrahydro-α,α-dimethyl-1H-imidazo[4,5-c]quinolin-1-yl]ethanol hydrate (U.S. Pat. No. 5,352,784; Example 91) and the expected area is the sum of the median dose values from the past 61 experiments. […]

As to `CC(C)(O)Cn1c(CCO)nc2c(N)nc3cccnc3c21` [Example 7, 1-[4-Amino-2-(2-hydroxyethyl)-1H-imidazo[4,5-c][1,5]naphthyridin 1-yl]-2-methylpropan-2-ol], the melting point was 194 to 195 °C. In addition, in the data set on IFN-α (Table 3, 18 to 24 hours), the minimal effective concentration was 3.33 µM. Besides, the minimal effective concentration in the data set on IFN-α (Table 4, 18 to 24 hours) was determined as 3.33 µM. Moreover, the minimal effective concentration with TNF-α (Table 3, 18 to 24 hours) is 30 µM. For the same molecule, the minimal effective concentration in the data set with TNF-α (Table 4, 18 to 24 hours) came to 30 µM.
`CC(C)(F)Cn1c(CCO)nc2c(N)nc3cccnc3c21` [Example 15, 2-[4-Amino-1-(2-fluoro-2-methylpropyl)-1H-imidazo[4,5-c][1,5]naphthyridin-2-yl]ethanol] came in with a melting point of 224 to 225 °C. For the same molecule, in the data set on IFN-α (Table 4, 18 to 24 hours), the minimal effective concentration stood at 1.11 µM. Moreover, the minimal effective concentration in the data set on TNF-α (Table 4, 18 to 24 hours) is 10 µM.
For `CCOCc1nc2c(N)nc3cccnc3c2n1CC(C)(C)NC(=O)C1CCCCC1` [Analog 6, N-[2-(4-amino-2-ethoxymethyl-1H-imidazo[4,5-c][1,5]naphthyridin-1-yl)-1,1-dimethylethyl]cyclohexanecarboxamide], in that order: 210 to 211 °C, 0.014 µM and 0.014 µM.
Molecule `CC(C)(F)Cn1c(CO)nc2c(N)nc3cccnc3c21` [Example 14, [4-Amino-1-(2-fluoro-2-methylpropyl)-1H-imidazo[4,5-c][1,5]naphthyridin-2-yl]methanol] had a melting point of 240 to 241 °C. For the same molecule, the minimal effective concentration in the data set on IFN-α (Table 4, 18 to 24 hours) was 1.11 µM. In addition, in the data set with TNF-α (Table 4, 18 to 24 hours), the minimal effective concentration was 3.33 µM.
Taken in the same sequence, the figures for `CS(=O)(=O)NCCCCn1c(CCO)nc2c(N)nc3cccnc3c21` [Example 3, N-{4-{4-Amino-2-(2-hydroxyethyl)-1H-imidazo[4,5-c][1,5]naphthyridin-1-yl]butyl}methanesulfonamide] were 194 to 195 °C, 1.11 µM and 30 µM.
